In US8242274B2, “Triazolopyridine kinase inhibitors useful for the treatment of degenerative and inflammatory diseases” (Galapagos NV, priority 2008, dated 2012):

What was measured:
[1] = Caco2 permeability, bi-directional; type: in vitro ADME; conditions: human; for Papp A→B at 1 h, 10 μM: Caco-2, pH 7.4
Protocol: Bi-directional Caco-2 assays were performed as described below. Caco-2 cells were obtained from European Collection of Cell Cultures (ECACC, cat 86010202) and used after a 21 day cell culture in 24-well Transwell plates (Fisher TKT-545-020B).
2×10^5 cells/well were seeded in plating medium consisting of DMEM+GlutaMAXI+1% NEAA+10% FBS (FetalClone II)+1% Pen/Strep. The medium was changed every 2-3 days.
Test and reference compounds (propranolol and rhodamine 123 or vinblastine, all purchased from Sigma) were prepared in Hanks' Balanced Salt Solution containing 25 mM HEPES (pH 7.4) and added to either the apical (125 μL) or basolateral (600 μL) chambers of the Transwell plate assembly at a concentration of 10 μM with a final DMSO concentration of 0.25%.
50 μM Lucifer Yellow (Sigma) was added to the donor buffer in all wells to assess integrity of the cell layers by monitoring Lucifer Yellow permeation. As Lucifer Yellow (LY) cannot freely permeate lipophilic barriers, a high degree of LY transport indicates poor integrity of the cell layer.
After a 1 hour incubation at 37° C. while shaking at an orbital shaker at 150 rpm, 70 μL aliquots were taken from both apical (A) and basal (B) chambers and added to 100 μLl 50:50 acetonitrile:water solution containing analytical internal standard (0.5 μM carbamazepine) in a 96 well plate.
Lucifer yellow was measured with a Spectramax Gemini XS (Ex 426 nm and Em 538 nm) in a clean 96 well plate containing 150 μL of liquid from basolateral and apical side.
Concentrations of compound in the samples were measured by high performance liquid-chromatography/mass spectroscopy (LC-MS/MS).
The Efflux ratios, as an indication of active efflux from the apical cell surface, were calculated using the ratio of PappB>A/PappA>B.

[2] = biological target: T1, Recombinant human JAK3 catalytic domain (Homo sapiens, UniProt P52333); assay: JAK3 inhibition assay; type: biochemical; conditions: semi-quantitative score
T1 construct: Recombinant human JAK3 catalytic domain (amino acids 781-1124; catalog number PV3855); purchased Invitrogen PV3855
T1 sequence (P52333 781-1124): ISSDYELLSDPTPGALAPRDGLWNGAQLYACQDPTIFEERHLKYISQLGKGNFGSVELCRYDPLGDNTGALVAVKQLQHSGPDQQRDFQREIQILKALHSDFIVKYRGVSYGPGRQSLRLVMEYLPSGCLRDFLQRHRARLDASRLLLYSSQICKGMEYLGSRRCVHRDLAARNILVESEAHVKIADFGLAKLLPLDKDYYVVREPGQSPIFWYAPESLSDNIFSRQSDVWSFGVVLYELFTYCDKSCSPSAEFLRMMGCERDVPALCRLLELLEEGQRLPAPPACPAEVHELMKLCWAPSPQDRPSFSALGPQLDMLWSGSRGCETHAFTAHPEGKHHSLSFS
Protocol: Recombinant human JAK3 catalytic domain (amino acids 781-1124; catalog number PV3855) was purchased from Invitrogen. 0.025 mU of JAK3 was incubated with 2.5 μg polyGT substrate (Sigma catalog number P0275) in kinase reaction buffer (25 mM Tris pH 7.5, 0.5 mM EGTA, 0.5 mM Na3VO4, 5 mM b-glycerolphosphate, 0.01% Triton X-100, 1 μM non-radioactive ATP, 0.25 μCi 33P-gamma-ATP (GE Healthcare, catalog number AH9968) final concentrations) with or without 5 μL containing test compound or vehicle (DMSO, 1% final concentration), in a total volume of 25 μL, in a polypropylene 96-well plate (Greiner, V-bottom). After 105 min at 30° C., reactions were stopped by adding of 25 μL/well of 150 mM phosphoric acid. All of the terminated kinase reaction was transferred to prewashed (75 mM phosphoric acid) 96 well filter plates (Perkin Elmer catalog number 6005177) using a cell harvester (Perkin Elmer). Plates were washed 6 times with 300 μL per well of a 75 mM phosphoric acid solution and the bottom of the plates was sealed. 40 μL/well of Microscint-20 was added, the top of the plates was sealed and readout was performed using the Topcount (Perkin Elmer). Kinase activity was calculated by subtracting counts per minute (cpm) obtained in the presence of a positive control inhibitor (10 μM staurosporine) from cpm obtained in the presence of vehicle. The ability of a test compound to inhibit this activity was determined as: Percentage inhibition=((cpm determined for sample with test compound present−cpm determined for sample with positive control inhibitor) divided by (cpm determined in the presence of vehicle−cpm determined for sample with positive control inhibitor))*100%.
(§1) Dose dilution series were prepared for the compounds enabling the testing of dose-response effects in the JAK3 assay and the calculation of the IC50 for each compound. Each compound was routinely tested at concentration of 20 μM followed by a 1/3 serial dilution, 8 points (20 μM-6.67 μM-2.22 μM-740 nM-247 nM-82 nM-27 nM-9 nM) in a final concentration of 1% DMSO.

[3] = biological target: T2, Recombinant human TYK2 catalytic domain (Homo sapiens, UniProt P29597); assay: TYK2 inhibition assay; type: biochemical; conditions: semi-quantitative score
T2 construct: Recombinant human TYK2 catalytic domain (amino acids 871-1187; catalog number 08-147); purchased Carna biosciences 08-147
T2 sequence (P29597 871-1187): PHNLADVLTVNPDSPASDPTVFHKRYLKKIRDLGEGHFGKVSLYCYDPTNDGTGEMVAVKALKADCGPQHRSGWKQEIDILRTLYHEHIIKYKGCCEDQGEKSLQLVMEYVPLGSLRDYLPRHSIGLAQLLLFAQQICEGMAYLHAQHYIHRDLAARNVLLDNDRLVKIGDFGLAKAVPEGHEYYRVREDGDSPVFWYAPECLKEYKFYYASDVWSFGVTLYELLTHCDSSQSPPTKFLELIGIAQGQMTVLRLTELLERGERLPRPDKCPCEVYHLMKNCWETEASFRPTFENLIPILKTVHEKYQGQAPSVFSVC
Protocol: Recombinant human TYK2 catalytic domain (amino acids 871-1187; catalog number 08-147) was purchased from Carna biosciences. 5 ng of TYK2 was incubated with 12.5 μg polyGT substrate (Sigma catalog number P0275) in kinase reaction buffer (25 mM Hepes pH 7.5, 100 mM NaCl, 0.2 mM Na3VO4, 0.1% NP-40, 0.1 μM non-radioactive ATP, 0.125 μCi 33P-gamma-ATP (GE Healthcare, catalog number AH9968) final concentrations) with or without 5 μL containing test compound or vehicle (DMSO, 1% final concentration), in a total volume of 25 μL, in a polypropylene 96-well plate (Greiner, V-bottom). After 90 min at 30° C., reactions were stopped by adding of 25 μL/well of 150 mM phosphoric acid. All of the terminated kinase reaction was transferred to prewashed (75 mM phosphoric acid) 96 well filter plates (Perkin Elmer catalog number 6005177) using a cell harvester (Perkin Elmer). Plates were washed 6 times with 300 μL per well of a 75 mM phosphoric acid solution and the bottom of the plates was sealed. 40 μL/well of Microscint-20 was added, the top of the plates was sealed and readout was performed using the Topcount (Perkin Elmer). Kinase activity was calculated by subtracting counts per minute (cpm) obtained in the presence of a positive control inhibitor (10 μM staurosporine) from cpm obtained in the presence of vehicle. The ability of a test compound to inhibit this activity was determined as: Percentage inhibition=((cpm determined for sample with test compound present−cpm determined for sample with positive control inhibitor) divided by (cpm determined in the presence of vehicle−cpm determined for sample with positive control inhibitor))*100%.
as §1, with “TYK2” for “JAK3”

For O=C(Nc1nc2cccc(-c3ccc(OCc4ccc(C(F)(F)F)nc4)cc3)n2n1)C1CC1 [Compound 78, N-(5-(4-((6-(trifluoromethyl)pyridin-3-yl)methoxy)phenyl)-[1,2,4]triazolo[1,5-a]pyridin-2-yl)cyclopropanecarboxamide], the Papp A→B at 1 h, 10 μM [1] was 2 ×10⁻⁶ cm/s.

N#Cc1ccc(COc2ccc(-c3cccc4nc(NC(=O)C5CC5)nn34)cc2)cn1 [Compound 176, N-(5-(4-((6-cyanopyridin-3-yl)methoxy)phenyl)-[1,2,4]triazolo[1,5-a]pyridin-2-yl)cyclopropanecarboxamide] showed an IC50 [2] of 1 to 100 nM, an IC50 [3] of 1 to 100 nM and a Papp A→B at 1 h, 10 μM [1] of 10.6 ×10⁻⁶ cm/s.

For CC(=O)Nc1ccc(COc2ccc(-c3cccc4nc(NC(=O)C5CC5)nn34)cc2)cc1 [Compound 92, N-(5-(4-(4-acetamidobenzyloxy)phenyl)-[1,2,4]triazolo[1,5-a]pyridin-2-yl)cyclopropanecarboxamide], the IC50 [3] was greater than 1000 nM.

O=C(Nc1nc2cccc(-c3ccc(NCc4ccccc4)cc3)n2n1)C1CC1 [Compound 72, N-(5-(4-(benzylamino)phenyl)-[1,2,4]triazolo[1,5-a]pyridin-2-yl)cyclopropanecarboxamide] showed an IC50 [2] greater than 501 nM, an IC50 [3] greater than 1000 nM and a Papp A→B at 1 h, 10 μM [1] of 14.9 ×10⁻⁶ cm/s.

O=C(Nc1nc2cccc(-c3ccc(OCc4ccccc4)nc3)n2n1)C1CC1 [Compound 57, Cyclopropanecarboxylic acid [5-(6-benzyloxy-pyridin-3-yl)-[1,2,4]triazolo[1,5-a]pyridin-2-yl]-amide] showed an IC50 [2] greater than 501 nM.

With O=C(Nc1nc2cccc(-c3ccc(OCc4ccccc4)cc3)n2n1)C1CC1 [Compound 12, N-(5-(4-(benzyloxy)phenyl)-[1,2,4]triazolo[1,5-a]pyridin-2-yl)cyclopropanecarboxamide] the IC50 [2] was 1 to 100 nM.

With O=C(Nc1nc2cccc(-c3ccc(OCc4cccnc4)cc3)n2n1)C1CC1 [Compound 36, N-(5-(4-(pyridin-3-ylmethoxy)phenyl)-[1,2,4]triazolo[1,5-a]pyridin-2-yl)cyclopropanecarboxamide] the IC50 [2] was 101 to 500 nM, the IC50 [3] was 101 to 500 nM and the Papp A→B at 1 h, 10 μM [1] was 36.5 ×10⁻⁶ cm/s.

With O=C(Nc1nc2cccc(-c3ccc(OCc4ccccn4)cc3)n2n1)C1CC1 [Compound 37, N-(5-(4-(pyridin-2-ylmethoxy)phenyl)-[1,2,4]triazolo[1,5-a]pyridin-2-yl)cyclopropanecarboxamide] the IC50 [3] was 501 to 1000 nM, the efflux ratio at 1 h, 10 μM ([1]; Caco-2, pH 7.4, PappB>A/PappA>B) was 0.85 and the Papp A→B at 1 h, 10 μM [1] was 23 ×10⁻⁶ cm/s.
